{
  "source": "patent US10716771B2",
  "about": "“Pharmaceutical composition for preventing or treating immune diseases or inflammatory diseases, containing biguanide derivative compound as active ingredient” (THE CATHOLIC UNIVERSITY OF KOREA INDUSTRY-ACADEMIC …, priority 2013, dated 2020)",
  "tested_on": "IL-17",
  "assay": "IL-17 generation in mouse spleen cells under Th17 differentiation, sandwich ELISA",
  "type": "cell-based",
  "conditions": "mouse spleen cells under Th17 stimulating condition, 3 days",
  "experimental": "In order to verify whether the biguanide derivative compound of the present invention has the activity of […] generation of IL-17 as an inflammatory cytokine in a Th17 cell which is a pathogenic cell, an expression degree of IL-17 was measured by an ELISA assay.\nSpleen cells were obtained from a normal mouse of C57BL/6 (Orient Company, Korea). That is, the tissue of the spleen extracted from the mouse was finely grinded by using a teasing slide and then erythrocytes in the spleen were removed by an erythrocyte hemolysis solution. Thereafter, a PBS buffer solution was added, centrifuged, and washed to obtain spleen cells.\n1×10^6 of the spleen cells from the mouse prepared through Example <2-1> were divided in a 24-well plate coated with […] of anti-CD3 antibody and simultaneously treated with 1 μg/mL of anti-CD28 antibody, 2 ng/ml of TGF-β, 20 ng/ml of IL-6 20 ng/ml, 2 μg/ml of anti-IL-4, and 2 μg/ml of anti-IFNr as a condition capable of stimulating Th17 cells, and then the cells were incubated for 3 days to induce the differentiation of the Th17 cells. […]\nIn order to measure an amount of the generated IL-17 cytokine, a supernatant of the incubated cells was collected and the IL-17 expression degree was examined by using a sandwich ELISA. […] Thereafter, a PNPP/DEA solution was added and colored, and then the absorbance was measured at a wavelength of 405 nm.",
  "data": [
    {"compound": "CC(C)NC(=N)NC(=N)N", "note": "[SD-000196, 1-isopropylbiguanide]", "values": [
      {"measurement": "IL-17 generated amount, dependence on treatment concentration", "setting": "2 μM, 20 μM and 200 μM", "result": "reduced depending on the treatment concentration"},
      {"measurement": "generated amount of IL-17", "setting": "200 μM, sandwich ELISA", "result": "completely suppressed"}
    ]}
  ]
}
